The values that follow come from patent US8153818B2, “Triazolyl phenyl benzenesulfonamides” (ChemoCentryx, Inc., priority 2006, dated 2012).

The target of the first test is T1, CCR9 (Homo sapiens, UniProt P51686).
T1 construct: chemokine expressing cells (such as THP-1 cells for CCR2 assay or MOLT-4 cells for CCR9 assay); host or cells: MOLT-4
T1 sequence (P51686 1-369): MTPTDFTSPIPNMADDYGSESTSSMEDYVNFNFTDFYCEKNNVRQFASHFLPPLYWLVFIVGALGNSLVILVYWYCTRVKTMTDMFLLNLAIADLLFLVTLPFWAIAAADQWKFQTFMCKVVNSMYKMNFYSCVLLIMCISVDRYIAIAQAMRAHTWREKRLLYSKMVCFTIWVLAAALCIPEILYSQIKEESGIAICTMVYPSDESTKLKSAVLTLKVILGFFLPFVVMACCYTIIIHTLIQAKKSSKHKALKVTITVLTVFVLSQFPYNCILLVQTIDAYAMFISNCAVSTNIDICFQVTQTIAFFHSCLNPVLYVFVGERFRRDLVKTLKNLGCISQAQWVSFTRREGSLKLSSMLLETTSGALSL
The test can be described thus: CCR9 activity in one of the chemotaxis, binding or calcium mobilization assays. The format is cell-based. Particulars: assay not specified per compound. An outline of the steps: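 Chemotaxis: THP-1 cells (CCR2, 0.1 nM MCP-1, 90 min) or MOLT-4 cells (CCR9, 50 nM TECK, 150 min) preincubated with compound 15 min RT, migration at 37 °C through 5-μm membrane, CyQUANT read; IC50 by nonlinear regression. Calcium flux: Fluo-4-loaded cells, 0.1 nM MCP-1 or 25 nM TECK. Binding: THP-1, ~50 pM [125I]MCP-1, 3 h, 4 °C.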
The IC50 is the concentration at which inhibition is half-maximal. On to `COCc1nnc(-c2cc(Cl)ccc2NS(=O)(=O)c2ccc(C(C)(C)C)cc2)n1C` [Compound 10, 4-tert-butyl-N-(4-chloro-2-(5-(methoxymethyl)-4-methyl-4H-1,2,4-triazol-3-yl)phenyl)benzenesulfonamide], for which the IC50 was less than 1000 nM. On the same count and under the same terms, the same measure for `CC(C)c1nnc(-c2cc(Cl)ccc2NS(=O)(=O)c2ccc(C(C)(C)C)cc2)n1C(C)C` [Compound 11, 4-tert-butyl-N-(4-chloro-2-(4,5-diisopropyl-4H-1,2,4-triazol-3-yl)phenyl)benzenesulfonamide]: less than 1000 nM; for `CCn1c(C)nnc1-c1cc(F)c(F)cc1NS(=O)(=O)c1ccc(C(C)(C)C)cc1` [Compound 71, 4-tert-butyl-N-(2-(4-ethyl-5-methyl-4H-1,2,4-triazol-3-yl)-4,5-difluorophenyl)benzenesulfonamide]: less than 1000 nM; for `Cc1nnc(-c2cc(Cl)ccc2NS(=O)(=O)c2ccc(C(C)(C)C)cc2)n1C1CCC1` [Compound 84, 4-tert-butyl-N-(4-chloro-2-(4-cyclobutyl-5-methyl-4H-1,2,4-triazol-3-yl)phenyl)benzenesulfonamide]: less than 1000 nM.

As to `CC(C)n1c(N)nnc1-c1cc(Cl)ccc1NS(=O)(=O)c1ccc(C(C)(C)C)cc1` [Compound 92, N-(2-(5-amino-4-isopropyl-4H-1,2,4-triazol-3-yl)-4-chlorophenyl)-4-tert-butylbenzenesulfonamide], the IC50 is less than 1000 nM. `CC(C)(C)c1ccc(S(=O)(=O)Nc2ccc(Cl)cc2-c2nncn2[C@H]2CCCOC2)cc1` [Compound 104]: the IC50 is less than 1000 nM. The same measure, in the same setting: the value for `CC(C)(C)c1ccc(S(=O)(=O)Nc2cc(F)c(Cl)cc2-c2nncn2[C@H]2CCNC2=O)cc1` [Compound 90] was less than 1000 nM; that for `CC(C)(C)c1ccc(S(=O)(=O)Nc2ccc(Cl)cc2-c2nncn2[C@H]2CCN(C(N)=O)C2)cc1` [Compound 143] was less than 1000 nM. Same read-out and setting: the same measure for `Cn1c(CN2CCC2)nnc1-c1cc(Cl)c(F)cc1NS(=O)(=O)c1ccc(C(C)(C)C)cc1` [Compound 122]: less than 1000 nM. Consider `Cc1nnc(-c2cc(F)c(F)cc2NS(=O)(=O)c2ccc(C(C)(C)C)cc2)n1[C@H]1CCNC1` [Compound 77, (S)-4-tert-butyl-N-(4,5-difluoro-2-(5-methyl-4-(pyrrolidin-3-yl)-4H-1,2,4-triazol-3-yl)phenyl)benzenesulfonamide], for which the IC50 was less than 1000 nM.

As to `CC(C)(C)c1ccc(S(=O)(=O)Nc2cc(F)c(F)cc2-c2nncn2C2CCOC2)cc1` (centres unmarked) [Compound 42], the IC50 is less than 1000 nM.

In the case of `Cc1nnc(-c2cc(Cl)ccc2NS(=O)(=O)c2ccc(C(C)(C)C)cc2)n1C1CCOC1` (centres unmarked) [Compound 101], the IC50 was less than 1000 nM. Still for that read-out and setting: the value for `CCc1nnc(-c2cc(Cl)c(F)cc2NS(=O)(=O)c2ccc(C(C)(C)C)cc2)n1[C@H]1CCNC1` [Compound 88] was less than 1000 nM. Turning to `CCc1nnc(-c2cc(Cl)ccc2NS(=O)(=O)c2ccc(C(C)(C)C)cc2)n1[C@H]1CCNC1` [Compound 119, (S)-4-tert-butyl-N-(4-chloro-2-(5-ethyl-4-(pyrrolidin-3-yl)-4H-1,2,4-triazol-3-yl)phenyl)benzenesulfonamide], the IC50 was less than 1000 nM.

With `Cc1nnc(-c2cc(Cl)ccc2NS(=O)(=O)c2ccc(C(C)(C)C)cc2)n1C(C)C` [Compound 3, 4-tert-butyl-N-(4-chloro-2-(4-isopropyl-5-methyl-4H-1,2,4-triazol-3-yl)phenyl)benzenesulfonamide], the IC50 was less than 1000 nM. Still for that read-out and setting: the value for `CNC(=O)c1nnc(-c2cc(Cl)c(F)cc2NS(=O)(=O)c2ccc(C(C)(C)C)cc2)n1C` [Compound 56, 5-(2-(4-tert-butylphenylsulfonamido)-5-chloro-4-fluorophenyl)-N,4-dimethyl-4H-1,2,4-triazole-3-carboxamide] was less than 1000 nM. Same read-out and setting: the same measure for `CCc1nnc(-c2cc(Cl)c(F)cc2NS(=O)(=O)c2ccc(C(C)(C)C)cc2)n1C` [Compound 110, 4-tert-butyl-N-(4-chloro-2-(5-ethyl-4-methyl-4H-1,2,4-triazol-3-yl)-5-fluorophenyl)benzenesulfonamide]: less than 1000 nM; for `CC(C)(C)c1ccc(S(=O)(=O)Nc2cc(F)c(Cl)cc2-c2nncn2[C@H]2CCNC2)cc1` [Compound 109]: less than 1000 nM.

The target of a further test is T2, CCR2 (Homo sapiens, UniProt P41597).
T2 construct: CCR2 expressing THP-1 cells were centrifuged and resuspended in assay buffer; host or cells: THP-1
T2 sequence (P41597 1-360 isoform P41597-2): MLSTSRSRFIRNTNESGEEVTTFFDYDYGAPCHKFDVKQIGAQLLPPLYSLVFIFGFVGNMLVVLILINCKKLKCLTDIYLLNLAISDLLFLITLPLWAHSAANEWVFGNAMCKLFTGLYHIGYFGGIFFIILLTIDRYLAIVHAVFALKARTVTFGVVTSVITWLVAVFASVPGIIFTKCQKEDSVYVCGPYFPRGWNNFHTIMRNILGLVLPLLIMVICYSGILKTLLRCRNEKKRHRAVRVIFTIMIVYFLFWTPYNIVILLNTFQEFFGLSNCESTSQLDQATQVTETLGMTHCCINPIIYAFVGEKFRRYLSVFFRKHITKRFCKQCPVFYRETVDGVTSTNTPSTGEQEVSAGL
Description: CCR2 activity in one of the chemotaxis, binding or calcium mobilization assays. The format is cell-based. Particulars: assay not specified per compound. How it is done: Conventional migration assay was used to determine the efficacy of potential receptor antagonists in blocking migration mediated through chemokines (such as CCR2 or CCR9). This assay was routinely performed using the ChemoTX® microchamber system with a 5-μm pore-sized polycarbonate membrane. To begin such an assay, chemokine expressing cells (such as THP-1 cells for CCR2 assay or MOLT-4 cells for CCR9 assay) were harvested by centrifugation of cell suspension at 1000 RPM on a GS-6R Beckman centrifuge. The cell pellet was resuspended in chemotaxis buffer (HBSS with 0.1% BSA) at 10×10^6 cells/mL for CCR2 assay (5×10^6 cells/mL for CCR9 assay). Test compounds at desired concentrations were prepared from 10 mM stock solutions by serial dilutions in chemotaxis buffer. An equal volume of cells and compounds were mixed and incubated at room temperature for 15 minutes. Afterwards, 20 μL of the mixture was transferred onto the porous membrane of a migration microchamber, with 29 μL of chemokine ligand (0.1 nM chemokine MCP-1 protein for CCR2 assay or […] chemokine TECK protein for CCR9 assay) placed at the lower chamber. Following an incubation at 37° C. (90-minute for CCR2; 150-minute for CCR9), during which cells migrated against the chemokine gradient, the assay was terminated by removing the cell drops from atop the filter. To quantify cells migrated across the membrane, 5 μL of 7×CyQUANT® solution was added to each well in the lower chamber, and the fluorescence signal measured on a Spectrafluor Plus fluorescence plate reader (TECAN, Durham, N.C.). The degree of inhibition was determined by comparing migration signals between compound-treated and untreated cells. IC50 calculation was further performed by non-linear squares regression analysis using Graphpad Prism (Graphpad Software, San Diego, Calif.).
Calcium flux assay measures an increase in intracellular calcium following ligand-induced receptor activation. In the screen of chemokine antagonists, it was used as a secondary assay carried out on a FLIPR® machine (Molecular Devices, Mountain View, Calif.). To begin an assay, chemokine expressing cells (such as THP-1 cells for CCR2 assay or MOLT-4 cells for CCR9 assay) were harvested by centrifugation of cell suspension, and resuspended to 1.5×10^6 cells/mL in HBSS (with 1% fetal calf serum). Cells were then labeled with a calcium indicator dye Fluo-4 AM for 45 minutes at 37° C. with gentle shaking. Following incubation, cells were pelletted, washed once with HBSS and resuspended in the same buffer at a density of 1.6×10^6 cells/mL. One hundred microliters of labeled cells were mixed with 10 μL of test compound at the appropriate concentrations on an assay plate. Chemokine protein (MCP-1 at a final concentration of 0.1 nM for CCR2 assay or TECK at a final concentration of 25 nM for CCR9 assay) to activate the receptor. The degree of inhibition was determined by comparing calcium signals between compound-treated and untreated cells. IC50 calculations were further performed by non-linear squares regression analysis using Graphpad Prism (Graphpad Software, San Diego, Calif.).
Ligand binding assay was used to determine the ability of potential CCR2 antagonists to block the interaction between CCR2 and its ligand MCP-1. CCR2 expressing THP-1 cells were centrifuged and resuspended in assay buffer (20 mM HEPES pH 7.1, 140 mM NaCl, 1 mM CaCl2, 5 mM MgCl2, and with 0.2% bovine serum albumin) to a concentration of 2.2×10^5 cells/mL. Binding assays were set up as follows. […]
(In general: A change in cytosolic calcium serves as a functional read-out for many receptors and channels.)
Take `O=S(=O)(Nc1cc(Cl)c(F)cc1-c1nncn1-c1cc[nH]n1)c1ccc(Cl)c(C(F)(F)F)c1` [Compound 160, N-(2-(4-(1H-pyrazol-3-yl)-4H-1,2,4-triazol-3-yl)-5-chloro-4-fluorophenyl)-4-chloro-3-(trifluoromethyl)benzenesulfonamide]: the 50% inhibitory concentration (IC50) is less than 1000 nM. On the same count and under the same terms, the value for `Cc1nnc(-c2ccc(Cl)cc2NS(=O)(=O)c2ccc(Cl)c(C(F)(F)F)c2)n1-c1cc[nH]n1` [Compound 158] was less than 1000 nM; that for `NC(=O)c1nnc(-c2cc(F)c(Cl)cc2NS(=O)(=O)c2ccc(Cl)c(C(F)(F)F)c2)n1-c1cc[nH]n1` [Compound 161, 5-(4-chloro-2-(4-chloro-3-(trifluoromethyl)phenylsulfonamido)-5-fluorophenyl)-4-(1H-pyrazol-3-yl)-4H-1,2,4-triazole-3-carboxamide] was less than 1000 nM; that for `O=S(=O)(Nc1cc(Cl)ccc1-c1nncn1-c1cc[nH]n1)c1ccc(Cl)c(C(F)(F)F)c1` [Compound 157] was less than 1000 nM. On the same count and under the same terms, the value for `O=S(=O)(Nc1cc(Cl)ccc1-c1nncn1-c1ccccc1)c1ccc(Cl)c(C(F)(F)F)c1` [Compound 159, 4-chloro-N-(5-chloro-2-(4-phenyl-4H-1,2,4-triazol-3-yl)phenyl)-3-(trifluoromethyl)benzenesulfonamide] was less than 1000 nM.
